Data published in PubChem BioAssay AID2060486 (Molecular Pharmacology Branch, DTP, NCI, 2025).

Test system: IGROV1 complex spheroids (HUVEC, MSC), viability % test/control
Assay: Anticancer human tumor IGROV1 cell line growth inhibition [GQUAD];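 note: spheroids exposed to compounds for 7 days before readout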;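 for viability, T/C: 100% = DMSO vehicle control viability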
Conditions: for IC50: curve of first compound; for viability, T/C: stronger effect = lower value
How it was run: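 Tumor cells were grown as complex spheroids with HUVEC endothelial cells and mesenchymal stem cells as stroma. G-quadruplex stabilizers were combined with targeted agents over half-log dilutions from near the clinical Cmax, or from 10 microM.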

[1] = second compound 0.0316 µM, first compound 0.0316 µM
[2] = second compound 0.0316 µM, first compound 0.1 µM
[3] = second compound 0.0316 µM, first compound 0.316 µM
[4] = second compound 0.0316 µM, first compound 1 µM
[5] = second compound 0.0316 µM, first compound 3.16 µM
[6] = second compound 0.0316 µM, first compound 10 µM
[7] = second compound 0.1 µM, first compound 0.0316 µM
[8] = second compound 0.1 µM, first compound 0.1 µM
[9] = second compound 0.1 µM, first compound 0.316 µM
[10] = second compound 0.1 µM, first compound 1 µM
[11] = second compound 0.1 µM, first compound 3.16 µM
[12] = second compound 0.1 µM, first compound 10 µM
[13] = second compound 0.316 µM, first compound 0.0316 µM
[14] = second compound 0.316 µM, first compound 0.1 µM
[15] = second compound 0.316 µM, first compound 0.316 µM
[16] = second compound 0.316 µM, first compound 1 µM
[17] = second compound 0.316 µM, first compound 3.16 µM
[18] = second compound 0.316 µM, first compound 10 µM
[19] = second compound 1 µM, first compound 0.0316 µM
[20] = second compound 1 µM, first compound 0.1 µM
[21] = second compound 1 µM, first compound 0.316 µM
[22] = second compound 1 µM, first compound 1 µM
[23] = second compound 1 µM, first compound 3.16 µM
[24] = second compound 1 µM, first compound 10 µM
[25] = second compound 3.16 µM, first compound 0.0316 µM
[26] = second compound 3.16 µM, first compound 0.1 µM
[27] = second compound 3.16 µM, first compound 0.316 µM
[28] = second compound 3.16 µM, first compound 1 µM
[29] = second compound 3.16 µM, first compound 3.16 µM
[30] = second compound 3.16 µM, first compound 10 µM
[31] = second compound 10 µM, first compound 0.0316 µM
[32] = second compound 10 µM, first compound 0.1 µM
[33] = second compound 10 µM, first compound 0.316 µM
[34] = second compound 10 µM, first compound 1 µM
[35] = second compound 10 µM, first compound 3.16 µM
[36] = second compound 10 µM, first compound 10 µM

For CC1COCCN1c1cc(C2(S(C)(=N)=O)CC2)nc(-c2ccnc3[nH]ccc23)n1 (stereo not drawn) + CN(C)c1ccc(Nc2c3ccc(NC(=O)CCN4CCCC4)cc3nc3cc(NC(=O)CCN4CCCC4)ccc23)cc1, the IC50 (second compound 0.0316 µM) was 1020 nM, the IC50 (second compound 0.1 µM) was 949 nM and the IC50 (second compound 0.316 µM) was 979 nM. The IC50 (second compound 1 µM) was 1020 nM, the IC50 (second compound 3.16 µM) was 1030 nM and the IC50 (second compound 10 µM) was 141 nM. For the same compound, the viability, T/C [1] was 83.5%, the viability, T/C [2] was 76.6% and the viability, T/C [3] was 86.7%. For the same compound, the viability, T/C [4] was 49.9%, the viability, T/C [5] was 16.1% and the viability, T/C [6] was 7.65%. It also gave a viability, T/C [7] of 99.2%, a viability, T/C [8] of 89.5% and a viability, T/C [9] of 76.3%. It also gave a viability, T/C [10] of 52.7%, a viability, T/C [11] of 14% and a viability, T/C [12] of 5.88%. The viability, T/C [13] was 83.7%, the viability, T/C [14] was 103% and the viability, T/C [15] was 76.8%. For the same compound, the viability, T/C [16] was 51.4%, the viability, T/C [17] was 13.7% and the viability, T/C [18] was 6.28%. For the same compound, the viability, T/C [19] was 72.4%, the viability, T/C [20] was 93% and the viability, T/C [21] was 69.8%. The viability, T/C [22] was 52.5%, the viability, T/C [23] was 12.1% and the viability, T/C [24] was 6.36%. The viability, T/C [25] was 65.5%, the viability, T/C [26] was 84% and the viability, T/C [27] was 79.7%. For the same compound, the viability, T/C [28] was 49.4%, the viability, T/C [29] was 16.5% and the viability, T/C [30] was 6.55%. It also gave a viability, T/C [31] of 60.6%, a viability, T/C [32] of 54.4% and a viability, T/C [33] of 40.4%. The viability, T/C [34] was 30.5%, the viability, T/C [35] was 15.2% and the viability, T/C [36] was 7.14%.

Work on COc1ccc([C@@H](O)c2cc(-c3ncnc4cc(N5CCOCC5)ccc34)c(F)cc2Cl)nn1 + CN(C)c1ccc(Nc2c3ccc(NC(=O)CCN4CCCC4)cc3nc3cc(NC(=O)CCN4CCCC4)ccc23)cc1 yielded an IC50 (second compound 0.0316 µM) of 1420 nM, an IC50 (second compound 0.1 µM) of 709 nM and an IC50 (second compound 0.316 µM) of 718 nM. The IC50 (second compound 1 µM) was 659 nM, the IC50 (second compound 3.16 µM) was 348 nM and the IC50 (second compound 10 µM) was 107 nM. It also gave a viability, T/C [1] of 89.1%, a viability, T/C [2] of 89.1% and a viability, T/C [3] of 94.4%. For the same compound, the viability, T/C [4] was 62%, the viability, T/C [5] was 20.7% and the viability, T/C [6] was 7.56%. It also gave a viability, T/C [7] of 88.4%, a viability, T/C [8] of 72.3% and a viability, T/C [9] of 74%. For the same compound, the viability, T/C [10] was 40.1%, the viability, T/C [11] was 14.7% and the viability, T/C [12] was 6.35%. The viability, T/C [13] was 93.1%, the viability, T/C [14] was 82.9% and the viability, T/C [15] was 71%. It also gave a viability, T/C [16] of 41.8%, a viability, T/C [17] of 17.6% and a viability, T/C [18] of 6.18%. It also gave a viability, T/C [19] of 63.1%, a viability, T/C [20] of 82.2% and a viability, T/C [21] of 74%. It also gave a viability, T/C [22] of 37.1%, a viability, T/C [23] of 11.4% and a viability, T/C [24] of 5.01%. For the same compound, the viability, T/C [25] was 69.4%, the viability, T/C [26] was 82.5% and the viability, T/C [27] was 49.1%. For the same compound, the viability, T/C [28] was 21.6%, the viability, T/C [29] was 8.01% and the viability, T/C [30] was 5.13%. For the same compound, the viability, T/C [31] was 56.6%, the viability, T/C [32] was 52.6% and the viability, T/C [33] was 30.4%. The viability, T/C [34] was 13.7%, the viability, T/C [35] was 5.94% and the viability, T/C [36] was 4.92%.

Cc1cccc(N(C)C(=O)C2C(O)CCN2c2nc(C)cc(C(F)(F)F)c2C#N)c1 (stereo not drawn) + CN(C)c1ccc(Nc2c3ccc(NC(=O)CCN4CCCC4)cc3nc3cc(NC(=O)CCN4CCCC4)ccc23)cc1 showed an IC50 (second compound 0.0316 µM) greater than 10000 nM, an IC50 (second compound 0.1 µM) greater than 10000 nM and an IC50 (second compound 0.316 µM) greater than 10000 nM. The IC50 (second compound 1 µM) was greater than 10000 nM, the IC50 (second compound 3.16 µM) was 5480 nM and the IC50 (second compound 10 µM) was less than 31.6 nM. The viability, T/C [1] was 101%, the viability, T/C [2] was 75.8% and the viability, T/C [3] was 85.2%. For the same compound, the viability, T/C [4] was 77.5%, the viability, T/C [5] was 92.5% and the viability, T/C [6] was 97.1%. For the same compound, the viability, T/C [7] was 93.9%, the viability, T/C [8] was 83.2% and the viability, T/C [9] was 86.9%. The viability, T/C [10] was 79.9%, the viability, T/C [11] was 95.5% and the viability, T/C [12] was 93.1%. For the same compound, the viability, T/C [13] was 99.1%, the viability, T/C [14] was 79.5% and the viability, T/C [15] was 88.5%. For the same compound, the viability, T/C [16] was 70.6%, the viability, T/C [17] was 88.9% and the viability, T/C [18] was 96.2%. For the same compound, the viability, T/C [19] was 86.2%, the viability, T/C [20] was 90.6% and the viability, T/C [21] was 71%. For the same compound, the viability, T/C [22] was 84.5%, the viability, T/C [23] was 89.3% and the viability, T/C [24] was 84.7%. For the same compound, the viability, T/C [25] was 83.1%, the viability, T/C [26] was 85.2% and the viability, T/C [27] was 82.2%. For the same compound, the viability, T/C [28] was 64%, the viability, T/C [29] was 71% and the viability, T/C [30] was 33.9%. For the same compound, the viability, T/C [31] was 43.5%, the viability, T/C [32] was 50.3% and the viability, T/C [33] was 34.3%. It also gave a viability, T/C [34] of 35%, a viability, T/C [35] of 25.7% and a viability, T/C [36] of 11.7%.

For O=C(c1cc(Cc2n[nH]c(=O)c3ccccc23)ccc1F)N1CCN(C(=O)C2CC2)CC1 + CN(C)c1ccc(Nc2c3ccc(NC(=O)CCN4CCCC4)cc3nc3cc(NC(=O)CCN4CCCC4)ccc23)cc1, the IC50 (second compound 0.0316 µM) was 3870 nM, the IC50 (second compound 0.1 µM) was 4570 nM and the IC50 (second compound 0.316 µM) was 3730 nM. The IC50 (second compound 1 µM) was 4880 nM, the IC50 (second compound 3.16 µM) was 2360 nM and the IC50 (second compound 10 µM) was less than 31.6 nM. The viability, T/C [1] was 87.2%, the viability, T/C [2] was 81.6% and the viability, T/C [3] was 67.3%. The viability, T/C [4] was 67.9%, the viability, T/C [5] was 61.6% and the viability, T/C [6] was 22.1%. For the same compound, the viability, T/C [7] was 92.9%, the viability, T/C [8] was 87.2% and the viability, T/C [9] was 83.9%. For the same compound, the viability, T/C [10] was 74.8%, the viability, T/C [11] was 67.6% and the viability, T/C [12] was 20.3%. The viability, T/C [13] was 66.1%, the viability, T/C [14] was 87.3% and the viability, T/C [15] was 78.4%. For the same compound, the viability, T/C [16] was 73.3%, the viability, T/C [17] was 54.3% and the viability, T/C [18] was 24.4%. The viability, T/C [19] was 62.2%, the viability, T/C [20] was 90.4% and the viability, T/C [21] was 86.9%. For the same compound, the viability, T/C [22] was 71.7%, the viability, T/C [23] was 66.1% and the viability, T/C [24] was 24.6%. For the same compound, the viability, T/C [25] was 58.3%, the viability, T/C [26] was 87.8% and the viability, T/C [27] was 78.6%. For the same compound, the viability, T/C [28] was 51.9%, the viability, T/C [29] was 49.9% and the viability, T/C [30] was 20.7%. The viability, T/C [31] was 50.9%, the viability, T/C [32] was 44.6% and the viability, T/C [33] was 38.4%. For the same compound, the viability, T/C [34] was 37.6%, the viability, T/C [35] was 30.1% and the viability, T/C [36] was 11.8%.
